Test results published in patent US20210338656A1, “IMMUNOSTIMULATORY AGENTS IN COMBINATION WITH ANGIOGENESIS INHIBITORS” (Alkermes Pharma Ireland Limited, priority 2020, published 2021).

Key:
[1] = tested on: MC38 murine colon carcinoma cells; experiment: Anti-tumor efficacy in subcutaneous MC38 syngeneic tumor model (tumor growth, survival); type: in vivo, mouse
Description: The characteristics of each animal study group, the administration of the test articles and timing, the collection of samples and the overall study design are as shown in Tables 1 and 2:
(68-72° F.) and 40-60% humidity.
Additional aliquots were stored at 4° C. for use within 72 hours of formulation. Just prior to administration, dosing solutions were remixed with gentle inversion.
Group mean tumor volumes were plotted versus time. When an animal exited the study because of tumor size or TR death, its final recorded tumor volume was included with the data used to calculate the mean volume. Mean tumor volumes were calculated for a group until 50% of the animals had exited the study. Kaplan-Meier plots show the percentage of animals in each group remaining in the study versus time.

[2] = tested on: gene expression in MC38 tumors; experiment: RNA-Seq gene expression in MC38 tumors, Day 10; type: in vivo, mouse
Description: On Day 10 spleens and tumors were collected and weighed from all animals in Groups 7 through 12 and weighed prior to processing. Tissues from four animals in each group were processed to single cell suspensions for flow cytometry analysis at CRL-NC (described below). Tissues from the remaining six animals in each group were preserved in RNAlater, stored at −80° C.
Tumors and spleens were dissected on the appropriate day of the study and were weighed and immediately placed in RNAlater Stabilizing Reagent to preserve the tissue and stored overnight at 4 deg C. The following day, the samples were removed from RNA later and snap frozen and placed at −80 deg C.
Unless otherwise indicated, everything was done on ice and the materials were prechilled on ice. The tissues were homogenized in TRIzol in Precellys tissue grinding tubes. After homogenization, the TRIzol solutions were transferred to 1.5 ml tubes and spun for 5 min at 12,000×g to eliminate the insoluble material. The TRIzol solutions were then transferred to Phasemaker tubes. Chloroform was added, the tubes were capped, and shaken vigorously for 15 seconds. The samples were then incubated at room temperature for 2-15 minutes and centrifuged at 12,000×g for 5 minutes. The upper, aqueous phase was then transferred to a new tube and an equal volume of 70% ethanol was added and it was vortexed. The liquid was then transferred to Qiagen RNeasy columns and centrifuged at 8000×g. DNAse was added to each tube to eliminate any residual DNA. The columns were then washed and eluted as directed by the kit. The RNA concentrations were determined using a Qubit.
Libraries were prepared for sequencing by using the Mouse Transcriptome Ion AmpliSeq Library Preparation on the Ion Chef System as directed by the manufacturer. Eight samples of purified RNA and 8 unique IonCode molecular barcodes were added to a 96 well plate and were prepared at a time. After the libraries were prepared, they were templated and loaded onto an Ion Torrent 540 chip using the Ion 540 Chef Kit from ThermoFisher. The 540 chips were then loaded into a Gene Studio S5 sequencer and sequenced.
Raw sequencing data was processed by Torrent Suite (v5.8.0) software that came with the Gene Studio sequencer (ThermoFisher). For each sample, this program summarized gene expression in a CHP file. The CHP files were then loaded into the Transcriptome Analysis Console (TAC) program (ThermoFisher).

[3] = T cell signaling gene, MC38 tumors Day 10 RNA-Seq, lucitanib 10 mg/kg po, SEQ ID NO. 2 3 mg/kg sc
[4] = Type I/II interferon pathway gene, MC38 tumors Day 10 RNA-Seq, lucitanib 10 mg/kg po, SEQ ID NO. 2 3 mg/kg sc
[5] = antigen presentation gene, MC38 tumors Day 10 RNA-Seq, lucitanib 10 mg/kg po, SEQ ID NO. 2 3 mg/kg sc

CNC(=O)c1cccc2cc(Oc3ccnc4cc(OCC5(N)CC5)c(OC)cc34)ccc12 [Lucitanib, 6-(7-((1-Aminocyclopropyl)-methoxy)-6-methoxyquinolin-4-yloxy)-N-methyl-1-naphthamide]
tumor growth inhibition (TGI) ([1]; Day 11, lucitanib monotherapy 10 mg/kg p.o. daily): 100% | median survival time ([1]; lucitanib monotherapy 10 mg/kg p.o. daily for 28 days, vehicle 15 days): 39 days | tumor growth outcome (summary in words) ([1]; treatment arm summaries): transient inhibition of tumor growth | Cd3e mean expression value relative to vehicle group [2, 3]: 2.49 | Cd4 mean expression value relative to vehicle group [2, 3]: 2.67 | Cd8a mean expression value relative to vehicle group [2, 3]: 2.03 | Cd8b1 mean expression value relative to vehicle group [2, 3]: 3.57 | Cd28 mean expression value relative to vehicle group [2, 3]: 5.49 | Cd247 mean expression value relative to vehicle group [2, 3]: 1.44 | Cd3d mean expression value relative to vehicle group [2, 3]: 3.14 | Ctla4 mean expression value relative to vehicle group [2, 3]: 4.10 | H2-Aa mean expression value relative to vehicle group [2, 3]: 1.59 | H2-Ab1 mean expression value relative to vehicle group [2, 3]: 1.12 | H2-Eb1 mean expression value relative to vehicle group [2, 3]: 1.66 | Icos mean expression value relative to vehicle group [2, 3]: 6.03 | Ifng mean expression value relative to vehicle group [2, 3]: 2.74 | Il2 mean expression value relative to vehicle group [2, 3]: 0.60 | Lck mean expression value relative to vehicle group [2, 3]: 1.36 | Lcp2 mean expression value relative to vehicle group [2, 3]: 0.40 | Nfatc2 mean expression value relative to vehicle group [2, 3]: 0.34 | Pdcd1 mean expression value relative to vehicle group [2, 3]: 0.75 | Ptpn22 mean expression value relative to vehicle group [2, 3]: 1.16 | Ptprc mean expression value relative to vehicle group [2, 3]: 2.25 | Zap70 mean expression value relative to vehicle group [2, 3]: 1.46 | B2m mean expression value relative to vehicle group [2, 4]: 0.32 | Bst2 mean expression value relative to vehicle group [2, 4]: 0.75 | Cd44 mean expression value relative to vehicle group [2, 4]: −0.26 | Ciita mean expression value relative to vehicle group [2, 4]: 0.62 | Fcgr1 mean expression value relative to vehicle group [2, 4]: 1.56 | Gm10499 mean expression value relative to vehicle group [2, 4]: 0.04 | H2-Aa mean expression value relative to vehicle group [2, 4]: 1.59 | H2-Ab1 mean expression value relative to vehicle group [2, 4]: 1.12 | H2-Eb1 mean expression value relative to vehicle group [2, 4]: 1.66 | H2-K1 mean expression value relative to vehicle group [2, 4]: 0.26 | H2-Q10 mean expression value relative to vehicle group [2, 4]: 0.32 | Icam1 mean expression value relative to vehicle group [2, 4]: 0.43 | Ifi35 mean expression value relative to vehicle group [2, 4]: 0.62 | Ifit2 mean expression value relative to vehicle group [2, 4]: 0.25 | Ifitm1 mean expression value relative to vehicle group [2, 4]: 0.38 | Ifna2 mean expression value relative to vehicle group [2, 4]: 0 | Ifnar1 mean expression value relative to vehicle group [2, 4]: −0.01 | Ifnar2 mean expression value relative to vehicle group [2, 4]: 0.39 | Ifnb1 mean expression value relative to vehicle group [2, 4]: 0.12 | Ifng mean expression value relative to vehicle group [2, 4]: 2.74 | Ifngr1 mean expression value relative to vehicle group [2, 4]: 0.84 | Irf1 mean expression value relative to vehicle group [2, 4]: 0.3 | Irf4 mean expression value relative to vehicle group [2, 4]: 1.23 | Irf5 mean expression value relative to vehicle group [2, 4]: 0.02 | Irf8 mean expression value relative to vehicle group [2, 4]: 0.38 | Mx1 mean expression value relative to vehicle group [2, 4]: 1.14 | Ncam1 mean expression value relative to vehicle group [2, 4]: 0.14 | Pml mean expression value relative to vehicle group [2, 4]: 0.19 | Ptpn6 mean expression value relative to vehicle group [2, 4]: 0.25 | Socs3 mean expression value relative to vehicle group [2, 4]: −0.24 | Tyk2 mean expression value relative to vehicle group [2, 4]: −0.16 | Vcam1 mean expression value relative to vehicle group [2, 4]: 0.52 | B2m mean expression value relative to vehicle group [2, 5]: 0.32 | Btk mean expression value relative to vehicle group [2, 5]: 0.42 | Cd14 mean expression value relative to vehicle group [2, 5]: 0.26 | Cd36 mean expression value relative to vehicle group [2, 5]: 4.37 | Cd74 mean expression value relative to vehicle group [2, 5]: 1.18 | Ctsc mean expression value relative to vehicle group [2, 5]: 0.36 | Ctss mean expression value relative to vehicle group [2, 5]: 2.29 | Cybb mean expression value relative to vehicle group [2, 5]: 1.66 | Fcgr1 mean expression value relative to vehicle group [2, 5]: 1.56 | H2-Aa mean expression value relative to vehicle group [2, 5]: 1.59 | H2-Ab1 mean expression value relative to vehicle group [2, 5]: 1.12 | H2-DMa mean expression value relative to vehicle group [2, 5]: 1.18 | H2-DMb2 mean expression value relative to vehicle group [2, 5]: 0.84 | H2-Ea-ps mean expression value relative to vehicle group [2, 5]: 0 | H2-Eb1 mean expression value relative to vehicle group [2, 5]: 1.66 | H2-K1 mean expression value relative to vehicle group [2, 5]: 0.26 | H2-Ob mean expression value relative to vehicle group [2, 5]: 2.19 | H2-Q10 mean expression value relative to vehicle group [2, 5]: 0.32 | Ly96 mean expression value relative to vehicle group [2, 5]: 0.58 | Ncf4 mean expression value relative to vehicle group [2, 5]: 0.62 | Psmb9 mean expression value relative to vehicle group [2, 5]: 0.6 | Tap1 mean expression value relative to vehicle group [2, 5]: 0.51 | Tlr1 mean expression value relative to vehicle group [2, 5]: 0.51 | Tlr2 mean expression value relative to vehicle group [2, 5]: 0.12 | Tlr4 mean expression value relative to vehicle group [2, 5]: 1.1 | Esm1 expression, a target of VEGF signaling ([2]; tumors): decrease | expression of genes associated with cytotoxic immune cell function, T cell activation, and antigen presentation ([2]; tumors): Increased expression
